In patent USRE49850E1, “N-(pyridin-2-yl)-4-(thiazol-5-yl)pyrimidin-2-amine derivatives as therapeutic compounds” (AUCENTRA THERAPEUTICS PTY LTD, priority 2015, dated 2024):

Key:
[1] = target: CDK1B (Homo sapiens, UniProt P06493); assay: Kinase assay CDK1B (radiometric profiling service); type: biochemical; conditions: for Ki: apparent Ki calculated from Km (ATP) and IC50, read-out: CDK inhibition Ki CDK1B; for remaining activity at 10 µM: compound at 10 μM, read-out: % remaining enzymatic activity at 10 μM CDK1B
CDK1B, sequence (P06493 whole entry): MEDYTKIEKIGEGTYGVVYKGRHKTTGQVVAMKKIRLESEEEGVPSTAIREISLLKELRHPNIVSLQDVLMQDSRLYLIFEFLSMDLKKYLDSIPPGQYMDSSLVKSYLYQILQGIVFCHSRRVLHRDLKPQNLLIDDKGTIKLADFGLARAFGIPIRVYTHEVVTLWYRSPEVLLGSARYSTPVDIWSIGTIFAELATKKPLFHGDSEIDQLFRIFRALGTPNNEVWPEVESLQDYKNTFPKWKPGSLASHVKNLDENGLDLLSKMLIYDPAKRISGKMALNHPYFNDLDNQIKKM
CDK1B, sequence (P14635 whole entry partner): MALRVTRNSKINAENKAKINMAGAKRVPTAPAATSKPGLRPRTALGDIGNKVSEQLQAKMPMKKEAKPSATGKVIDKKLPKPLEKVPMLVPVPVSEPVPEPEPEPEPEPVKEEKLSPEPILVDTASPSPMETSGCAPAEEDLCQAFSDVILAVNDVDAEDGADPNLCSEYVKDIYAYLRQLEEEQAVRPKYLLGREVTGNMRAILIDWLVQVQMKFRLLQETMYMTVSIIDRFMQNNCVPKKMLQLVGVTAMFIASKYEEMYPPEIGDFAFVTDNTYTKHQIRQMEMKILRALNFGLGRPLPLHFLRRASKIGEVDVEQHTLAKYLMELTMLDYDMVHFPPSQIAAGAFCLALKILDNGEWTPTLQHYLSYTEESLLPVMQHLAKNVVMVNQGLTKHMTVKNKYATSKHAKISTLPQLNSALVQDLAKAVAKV
Experimental: (§1) Eurofins Pharma Discovery or Reaction Biology Corporation Kinase Profiler services were used to measure inhibition of CDKs and other kinases by radiometric assay. Inhibition of CDK4/D1, CDK6/D3 and CDK9/T1 were also determined in-house using ADP Glo Kinase assays (Promega Corporation, Madison, USA). Briefly, the kinase reaction for CDK4/D1 and CDK6/D3 was performed with kinase reaction buffer ([…] Tris base pH 7.5, 20 mM MgCl2, 0.4 mM DTT), 0.1 mg/ml BSA and RB-CTF substrate (retinoblastoma protein1 C-terminal fraction). For CDK9/CyclinT1, the kinase reaction was performed with standard assay buffer and Kinase Dilution Buffer and RBER-IRStide substrate. Serial dilutions of 1:3 were prepared for test compounds for 10 concentrations (from 10 μM to 0.5 nM). The kinase reactions were started by addition of ATP, incubated for 40 min at 37° C. and then stopped by adding 10 μL of ADP Glo reagent. After incubation at room temperature in the dark for 40 min, 20 μL of kinase detection reagent was added per well and incubated for 40 min. Luminescence was measured using an EnVision Multilabel plate reader (PerkinElmer, Buckinghamshire, UK). Positive and negative controls were perfonned in the presence and absence of CDK kinases, respectively. Half-maximal inhibition (IC50) values were calculated using a 4-parameter logistic non-linear regression model with Graphpad prism (Version 6.0). Apparent inhibition constants (Ki) values were calculated from Km (ATP) and IC50 values for the respective kinases.

[2] = target: CDK 2A (Homo sapiens, UniProt P24941); assay: Kinase assay CDK2A (radiometric profiling service); type: biochemical; conditions: for Ki: apparent Ki calculated from Km (ATP) and IC50, read-out: CDK inhibition Ki CDK 2A; for remaining activity at 10 µM: compound at 10 μM, read-out: % remaining enzymatic activity at 10 μM CDK 2A
Experimental: as §1

[3] = target: T1, CDK4D1 (Homo sapiens, UniProt P11802); assay: Kinase assay CDK4/D1 (radiometric or ADP Glo); type: biochemical; conditions: apparent Ki calculated from Km (ATP) and IC50; read-out: CDK inhibition Ki CDK4D1
T1 construct: purchased Eurofins Pharma Discovery or Reaction Biology Corporation (service)
T1 sequence (P11802 whole entry): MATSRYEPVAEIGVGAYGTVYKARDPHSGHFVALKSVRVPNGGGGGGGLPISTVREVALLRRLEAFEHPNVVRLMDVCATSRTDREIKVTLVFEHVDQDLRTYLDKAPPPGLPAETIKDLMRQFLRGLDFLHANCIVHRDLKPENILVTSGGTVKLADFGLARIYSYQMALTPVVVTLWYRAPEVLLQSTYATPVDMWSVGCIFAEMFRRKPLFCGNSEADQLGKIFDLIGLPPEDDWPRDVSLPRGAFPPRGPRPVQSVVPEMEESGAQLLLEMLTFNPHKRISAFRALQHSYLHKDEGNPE
T1 sequence (P24385 whole entry partner): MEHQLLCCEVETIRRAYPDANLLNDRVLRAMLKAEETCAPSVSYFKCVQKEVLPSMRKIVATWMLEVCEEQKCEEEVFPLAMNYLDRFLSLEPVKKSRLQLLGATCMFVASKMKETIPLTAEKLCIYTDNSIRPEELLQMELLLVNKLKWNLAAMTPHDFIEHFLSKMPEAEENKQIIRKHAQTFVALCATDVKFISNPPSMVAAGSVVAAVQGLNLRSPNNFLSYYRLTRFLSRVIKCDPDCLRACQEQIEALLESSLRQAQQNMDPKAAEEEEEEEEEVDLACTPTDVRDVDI
Experimental: as §1

[4] = target: CDK7H (Homo sapiens, UniProt P50613); assay: Kinase assay CDK7H (radiometric profiling service); type: biochemical; conditions: for Ki: apparent Ki calculated from Km (ATP) and IC50, read-out: CDK inhibition Ki CDK7H; for remaining activity at 10 µM: compound at 10 μM, read-out: % remaining enzymatic activity at 10 μM CDK7H
CDK7H, sequence (P50613 whole entry): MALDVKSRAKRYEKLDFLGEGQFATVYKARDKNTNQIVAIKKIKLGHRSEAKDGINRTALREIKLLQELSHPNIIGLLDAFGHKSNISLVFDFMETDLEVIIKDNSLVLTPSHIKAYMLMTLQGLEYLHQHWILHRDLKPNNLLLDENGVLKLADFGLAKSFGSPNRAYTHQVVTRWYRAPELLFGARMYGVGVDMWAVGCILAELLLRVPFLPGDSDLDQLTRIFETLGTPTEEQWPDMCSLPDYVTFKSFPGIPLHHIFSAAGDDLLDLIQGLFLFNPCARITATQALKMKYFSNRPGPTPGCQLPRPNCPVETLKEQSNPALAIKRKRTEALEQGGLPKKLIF
CDK7H, sequence (P51946 whole entry partner): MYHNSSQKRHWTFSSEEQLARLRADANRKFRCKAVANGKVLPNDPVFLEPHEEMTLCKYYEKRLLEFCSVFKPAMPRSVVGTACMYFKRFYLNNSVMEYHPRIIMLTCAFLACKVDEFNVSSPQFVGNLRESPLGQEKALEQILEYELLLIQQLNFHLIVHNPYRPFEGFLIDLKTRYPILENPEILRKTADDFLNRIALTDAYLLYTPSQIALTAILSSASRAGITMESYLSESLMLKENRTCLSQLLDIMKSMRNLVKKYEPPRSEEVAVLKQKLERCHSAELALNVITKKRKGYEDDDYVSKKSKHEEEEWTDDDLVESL
CDK7H, sequence (P51948 whole entry partner): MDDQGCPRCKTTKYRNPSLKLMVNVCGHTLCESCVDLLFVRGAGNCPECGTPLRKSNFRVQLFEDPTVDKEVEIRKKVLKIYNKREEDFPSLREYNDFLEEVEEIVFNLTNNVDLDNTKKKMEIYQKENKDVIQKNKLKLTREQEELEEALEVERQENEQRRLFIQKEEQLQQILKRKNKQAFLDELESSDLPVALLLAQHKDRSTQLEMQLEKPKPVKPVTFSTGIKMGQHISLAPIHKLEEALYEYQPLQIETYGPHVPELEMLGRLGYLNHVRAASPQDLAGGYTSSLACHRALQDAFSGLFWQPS
Experimental: as §1

[5] = target: T2, CDK9T1 (Homo sapiens, UniProt P50750); assay: Kinase assay CDK9/T1 (radiometric or ADP Glo); type: biochemical; conditions: for Ki: apparent Ki calculated from Km (ATP) and IC50, read-out: CDK inhibition Ki CDK9T1; for remaining activity at 10 µM: compound at 10 μM, read-out: % remaining enzymatic activity at 10 μM CDK9T1
T2 construct: purchased Eurofins Pharma Discovery or Reaction Biology Corporation (service)
T2 sequence (P50750 whole entry): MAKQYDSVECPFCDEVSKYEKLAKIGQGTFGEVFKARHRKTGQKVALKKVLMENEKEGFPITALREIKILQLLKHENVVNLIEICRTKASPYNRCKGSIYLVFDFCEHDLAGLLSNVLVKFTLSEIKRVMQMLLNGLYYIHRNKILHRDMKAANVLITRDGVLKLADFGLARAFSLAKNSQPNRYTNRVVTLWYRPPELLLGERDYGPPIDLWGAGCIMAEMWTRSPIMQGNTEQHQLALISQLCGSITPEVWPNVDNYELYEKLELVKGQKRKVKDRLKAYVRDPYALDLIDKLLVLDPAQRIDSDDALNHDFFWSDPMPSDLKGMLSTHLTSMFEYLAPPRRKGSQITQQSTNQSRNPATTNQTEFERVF
T2 sequence (O60563 whole entry partner): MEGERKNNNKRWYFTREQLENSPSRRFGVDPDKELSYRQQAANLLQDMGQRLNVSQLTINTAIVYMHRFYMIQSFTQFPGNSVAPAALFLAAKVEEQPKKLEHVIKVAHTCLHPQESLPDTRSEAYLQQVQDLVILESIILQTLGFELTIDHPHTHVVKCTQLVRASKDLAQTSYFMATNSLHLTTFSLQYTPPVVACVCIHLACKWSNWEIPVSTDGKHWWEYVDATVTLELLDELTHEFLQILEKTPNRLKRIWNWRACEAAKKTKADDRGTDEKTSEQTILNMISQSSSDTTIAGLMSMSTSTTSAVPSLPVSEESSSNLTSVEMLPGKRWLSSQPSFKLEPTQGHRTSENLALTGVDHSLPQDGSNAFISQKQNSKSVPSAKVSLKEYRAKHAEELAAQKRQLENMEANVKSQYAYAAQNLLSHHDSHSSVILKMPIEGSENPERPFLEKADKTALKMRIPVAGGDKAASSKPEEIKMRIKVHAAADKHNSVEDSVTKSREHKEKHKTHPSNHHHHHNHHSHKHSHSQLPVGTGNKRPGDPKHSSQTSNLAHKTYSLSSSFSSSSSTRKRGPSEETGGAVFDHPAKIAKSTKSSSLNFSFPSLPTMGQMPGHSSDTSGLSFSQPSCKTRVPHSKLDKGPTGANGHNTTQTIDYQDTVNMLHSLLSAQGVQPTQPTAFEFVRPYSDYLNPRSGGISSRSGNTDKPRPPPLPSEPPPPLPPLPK
Experimental: as §1

[6] = system: MV4-11; assay: Cell viability assay (resazurin, leukemia cell line) MV4-11; type: cell-based, human; conditions: Homo sapiens, MV4-11, 72 h; read-out: Anti-proliferative activity GI50 MV4-11
Description: (§2) Compounds from Example 1 were subjected to a standard MTT (3-(4,5-dimethylthiazol-2-yl)-2,5-diphenyltetrazolium bromide) and resazurin assays on solid tumour cell lines and leukemia cell lines, respectively, as previously reported (Wang S et al., J Med Chem 47:1662-1675, 2004 and Diab S. et al. CheMedChem 9:962-972, 2014).

[7] = system: MDA-MB-453; assay: Cell viability assay (MTT, solid tumour cell line) MDA-MB-453; type: cell-based, human; conditions: Homo sapiens, MDA-MB-453, 72 h; read-out: Anti-proliferative activity GI50 MDA-MB-453
Description: as §2

[8] = target: T3, CDK6D3 (Homo sapiens, UniProt Q00534); assay: Kinase assay CDK6/D3 (radiometric or ADP Glo); type: biochemical; conditions: for Ki: apparent Ki calculated from Km (ATP) and IC50, read-out: CDK inhibition Ki CDK6D3; for remaining activity at 10 µM: compound at 10 μM, read-out: % remaining enzymatic activity at 10 μM CDK6D3
T3 construct: purchased Eurofins Pharma Discovery or Reaction Biology Corporation (service)
T3 sequence (Q00534 whole entry): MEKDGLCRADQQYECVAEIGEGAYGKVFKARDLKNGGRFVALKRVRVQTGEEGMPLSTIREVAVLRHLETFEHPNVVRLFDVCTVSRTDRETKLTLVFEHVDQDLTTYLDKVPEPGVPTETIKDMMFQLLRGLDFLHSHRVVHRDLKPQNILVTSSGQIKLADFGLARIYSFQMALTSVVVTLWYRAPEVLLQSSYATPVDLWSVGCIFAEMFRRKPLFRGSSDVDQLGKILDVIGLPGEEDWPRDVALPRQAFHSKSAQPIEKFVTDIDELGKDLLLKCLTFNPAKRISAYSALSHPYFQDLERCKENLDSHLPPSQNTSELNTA
T3 sequence (P30281 whole entry partner): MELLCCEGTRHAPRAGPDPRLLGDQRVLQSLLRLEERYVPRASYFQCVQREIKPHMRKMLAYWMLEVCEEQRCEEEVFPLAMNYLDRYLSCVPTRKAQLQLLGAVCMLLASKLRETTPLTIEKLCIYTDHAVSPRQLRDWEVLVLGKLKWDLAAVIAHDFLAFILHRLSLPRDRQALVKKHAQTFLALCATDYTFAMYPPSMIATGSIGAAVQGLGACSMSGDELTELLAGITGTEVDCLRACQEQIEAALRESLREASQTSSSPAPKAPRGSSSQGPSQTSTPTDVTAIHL
Experimental: as §1

Row | Ki [1] [µM] | Ki [2] [nM] | Ki [3] [nM] | Ki [4] [µM] | Ki [5] [µM] | GI50 [6] [nM] | GI50 [7] [nM] | Ki [8] [nM] | remaining activity at 10 µM [1] [%] | remaining activity at 10 µM [2] [%] | remaining activity at 10 µM [4] [%] | remaining activity at 10 µM [5] [%] | remaining activity at 10 µM [8] [%] | Compound
1 | > 5 | > 5000 | 290 | > 5 | > 5 | 5370 ± 1680 | > 10000 |  |  |  |  |  |  | CCc1nc(C)c(-c2ccnc(Nc3ccc(N4CCN(C(C)=O)CC4)cn3)n2)s1 [Compound 10, 1-(4-(6-((4-(2-ethyl-4-methylthiazol-5-yl)pyrimidin-2-yl)amino)pyridin-3-yl)piperazin-1-yl)ethan-1-one]
2 | > 5 | > 5000 | 250 | > 5 | > 5 | > 10000 | > 10000 |  |  |  |  |  |  | CCc1nc(C)c(-c2nc(Nc3ccc(N4CCN(C(C)=O)CC4)cn3)ncc2Cl)s1 [Compound 11, 1-(4-(6-((5-chloro-4-(2-ethyl-4-methylthiazol-5-yl)pyrimidin-2-yl)amino)pyridin-3-yl)piperazin-1-yl)ethan-1-one]
3 | > 5 | 2340 | 180 | > 5 | > 5 | 5290 ± 811 | > 10000 |  |  |  |  |  |  | CCc1nc(C)c(-c2ccnc(Nc3ccc(N4CCOCC4)cn3)n2)s1 [Compound 12, 4-(2-Ethyl-4-methylthiazol-5-yl)-N-(5-morpholinopyridin-2-yl)pyrimidin-2-amine]
4 | > 5 | 889 | 6 | > 5 | 2.85 | 259 ± 241 |  | 114 |  |  |  |  |  | CNc1nc(C)c(-c2ccnc(Nc3ccc(N4CCNCC4)cn3)n2)s1 [Compound 26, N,4-dimethyl-5-(2-((5-(piperazin-1-yl)pyridin-2-yl)amino)pyrimidin-4-yl)thiazol-2-amine]
5 |  |  | 1 |  |  | 14 ± 6 |  | 40 | 56 | 34 | 39 | 11 |  | CNc1nc(C)c(-c2nc(Nc3ccc(N4CCNCC4)cn3)ncc2C#N)s1 [Compound 27, 4-(4-methyl-2-(methylamino)thiazol-5-yl)-2-((5-(piperazin-1-yl)pyridin-2-yl)amino)pyrimidine-5-carbonitrile]
6 |  |  | 4 |  |  | 56 ± 4 |  | 32 | 66 | 36 | 43 | 9 |  | CNc1nc(C)c(-c2nc(Nc3ccc(N4CCN(C)CC4)cn3)ncc2C#N)s1 [Compound 30, 4-(4-methyl-2-(methylamino)thiazol-5-yl)-2-((5-(4-methylpiperazin-1-yl)pyridin-2-yl)amino)pyrimidine-5-carbonitrile]
7 | > 5 | 459 | 20 | > 5 | > 5 | 643 ± 18 |  | 610 |  |  |  |  |  | CNc1nc(C)c(-c2ccnc(Nc3ccc(N4CCOCC4)cn3)n2)s1 [Compound 36, N,4-dimethyl-5-(2-((5-morpholinopyridin-2-yl)amino)pyrimidin-4-yl)thiazol-2-amine]
8 | > 5 | 201 | 4 | > 5 | > 5 | 465 ± 129 |  | 64 |  |  |  |  |  | CNc1nc(C)c(-c2nc(Nc3ccc(N4CCOCC4)cn3)ncc2C#N)s1 [Compound 37, 4-(4-methyl-2-(methylamino)thiazol-5-yl)-2-((5-morpholinopyridin-2-yl)amino)pyrimidine-5-carbonitrile]
9 | > 5 | > 5000 | 169 | > 5 | > 5 | 45900 ± 2520 |  | 2710 |  |  |  |  |  | CNc1nc(C)c(-c2ccnc(Nc3ccc(N4CCN(Cc5ccccc5)CC4)cn3)n2)s1 [Compound 39, 5-(2-((5-(4-benzylpiperazin-1-yl)pyridin-2-yl)amino)pyrimidin-4-yl)-N,4-dimethylthiazol-2-amine]
10 | > 5 | 69 | 44 | > 5 | > 5 | 4680 ± 298 | 5360 ± 501 |  |  |  |  |  |  | Cc1nc(N(C)C)sc1-c1nc(Nc2ccc(N3CCOCC3)cn2)ncc1F [Compound 50, 5-(5-fluoro-2-((5-morpholinopyridin-2-yl)amino)pyrimidin-4-yl)-N,N,4-trimethylthiazol-2-amine]
11 | 3.02 |  |  | 0.78 |  | 9 ± 1 | 287 ± 70 |  |  |  |  |  |  | CCN1CCN(c2ccc(Nc3nccc(-c4sc(NC5CCCC5)nc4C)n3)nc2)CC1 [Compound 66, N-cyclopentyl-5-(2-((5-(4-ethylpiperazin-1-yl)pyridin-2-yl)amino)pyrimidin-4-yl)-4-methylthiazol-2-amine]
12 |  |  |  | > 5 | > 5 |  | 1440 ± 304 |  |  |  |  |  |  | Cc1nc(NC2CCCC2)sc1-c1nc(Nc2ccc(N3CCOCC3)cn2)ncc1F [Compound 72]
13 | 1.39 | 174 | 2 |  | 1.8 | 285 ± 41 | 402 ± 6 | 10 |  |  |  |  |  | Cc1nc(N(C)C2CCCC2)sc1-c1ccnc(Nc2ccc(N3CCNCC3)cn2)n1 [Compound 85, N-cyclopentyl-N,4-dimethyl-5-(2-((5-(piperazin-1-yl)pyridin-2-yl)amino)pyrimidin-4-yl)thiazol-2-amine]
14 | > 15 | > 5000 |  | > 5 | > 5 | 714 ± 179 | 373 ± 117 |  |  |  |  |  |  | Cc1nc(N(C2CCCC2)C2CCCC2)sc1-c1ccnc(Nc2ccc(N3CCNCC3)cn2)n1 [Compound 88, N,N-dicyclopentyl-4-methyl-5-(2-((5-(piperazin-1-yl)pyridin-2-yl)amino)pyrimidin-4-yl)thiazol-2-amine]
15 | 2.04 | > 5000 | 5 |  | 0.436 | 56 ± 11 | 279 ± 44 | 66 |  |  |  |  |  | Cc1nc(Nc2ccccc2)sc1-c1ccnc(Nc2ccc(N3CCNCC3)cn2)n1 [Compound 89, 4-Methyl-N-phenyl-5-(2-((5-(piperazin-1-yl)pyridin-2-yl)amino)pyrimidin-4-yl)thiazol-2-amine]
16 |  |  |  |  |  | 2240 ± 43 | > 10000 |  | 55 | 40 | 68 | 17 | 25 | CC(=O)N1CCN(c2ccc(Nc3nccc(-c4sc(=O)[nH]c4C)n3)nc2)CC1 [Compound 95, 5-(2-((5-(4-acetylpiperazin-1-yl)pyridin-2-yl)amino)pyrimidin-4-yl)-4-methylthiazol-2(3H)-one]
17 |  |  |  |  |  | 792 ± 74 | 2860 ± 988 |  | 63 | 61 | 22 | 15 | 11 | Cc1c(-c2ccnc(Nc3ccc(N4CCNCC4)cn3)n2)sc(=O)n1C1CCCC1 [Compound 96, 3-cyclopentyl-4-methyl-5-(2-((5-(piperazin-1-yl)pyridin-2-yl)amino)pyrimidin-4-yl)thiazol-2(3H)-one]
18 |  |  |  |  |  | 1510 ± 802 | > 10000 |  | 58 | 54 | 24 | 3 | 12 | Cc1[nH]c(=O)sc1-c1ccnc(Nc2ccc(N3CCNCC3)cn2)n1 [Compound 97, 4-methyl-5-(2-((5-(piperazin-1-yl)pyridin-2-yl)amino)pyrimidin-4-yl)thiazol-2(3H)-one]
